{
  "source": "patent US5948814A",
  "about": "“Genistein for the treatment of cystic fibrosis” (priority 1998, dated 1999)",
  "data": [
    {"target": "T1, ΔF508-CFTR (Homo sapiens, UniProt P13569, DEL508-508)", "T1 sequence (P13569 with tags, fused parts or gaps DEL508-508)": "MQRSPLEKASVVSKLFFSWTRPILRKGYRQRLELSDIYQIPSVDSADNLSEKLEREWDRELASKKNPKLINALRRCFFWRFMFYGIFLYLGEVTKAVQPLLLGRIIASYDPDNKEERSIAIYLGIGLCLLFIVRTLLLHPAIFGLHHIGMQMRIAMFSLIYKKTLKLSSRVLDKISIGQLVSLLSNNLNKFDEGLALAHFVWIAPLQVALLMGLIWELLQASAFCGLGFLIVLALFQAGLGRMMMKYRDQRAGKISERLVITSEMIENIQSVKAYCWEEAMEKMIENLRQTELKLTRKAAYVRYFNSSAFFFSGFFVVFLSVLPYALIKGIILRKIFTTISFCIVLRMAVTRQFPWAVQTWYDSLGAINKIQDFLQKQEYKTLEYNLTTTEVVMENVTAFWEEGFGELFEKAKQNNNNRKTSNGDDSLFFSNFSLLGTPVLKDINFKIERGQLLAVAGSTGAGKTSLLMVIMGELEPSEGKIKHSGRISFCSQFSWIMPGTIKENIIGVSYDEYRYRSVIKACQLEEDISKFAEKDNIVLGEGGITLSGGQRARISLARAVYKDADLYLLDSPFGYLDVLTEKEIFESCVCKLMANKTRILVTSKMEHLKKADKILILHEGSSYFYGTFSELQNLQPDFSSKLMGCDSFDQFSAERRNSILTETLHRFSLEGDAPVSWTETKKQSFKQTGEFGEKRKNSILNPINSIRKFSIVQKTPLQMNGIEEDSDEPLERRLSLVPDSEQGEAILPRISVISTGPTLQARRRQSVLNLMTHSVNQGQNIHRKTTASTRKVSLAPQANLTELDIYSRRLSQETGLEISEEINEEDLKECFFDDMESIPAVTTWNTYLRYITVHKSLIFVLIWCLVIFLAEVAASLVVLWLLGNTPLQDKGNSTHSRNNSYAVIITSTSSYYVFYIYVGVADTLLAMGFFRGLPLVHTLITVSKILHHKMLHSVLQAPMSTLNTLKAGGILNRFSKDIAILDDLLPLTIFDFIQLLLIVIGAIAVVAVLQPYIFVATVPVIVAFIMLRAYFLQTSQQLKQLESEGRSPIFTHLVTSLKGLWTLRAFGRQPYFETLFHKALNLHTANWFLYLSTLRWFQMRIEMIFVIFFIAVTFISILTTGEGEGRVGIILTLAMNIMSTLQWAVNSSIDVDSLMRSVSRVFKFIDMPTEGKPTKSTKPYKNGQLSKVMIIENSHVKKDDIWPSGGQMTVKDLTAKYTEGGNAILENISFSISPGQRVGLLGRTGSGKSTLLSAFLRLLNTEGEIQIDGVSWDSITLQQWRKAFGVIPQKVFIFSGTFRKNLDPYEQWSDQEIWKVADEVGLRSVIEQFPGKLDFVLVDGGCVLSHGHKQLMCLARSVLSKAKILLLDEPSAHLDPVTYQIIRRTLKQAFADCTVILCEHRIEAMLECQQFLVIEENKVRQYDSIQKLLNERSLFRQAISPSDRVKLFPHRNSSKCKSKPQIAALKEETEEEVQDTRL", "experiment": "Patch clamp, cell-attached patches, macroscopic current, NIH/3T3-ΔF508 cells", "details": "200 μM CPT-cAMP after 10 μM forskolin", "experimental": "FIGS. 3A and B show recordings of the potentiation of wild-type (wt) and ΔF508-CFTR channel activity by genistein. Channels in cell-attached patches from NIH/3T3-CFTR (FIG. 3A) and NIH/3T3-ΔF508cells (FIG. 3B), were stimulated as indicated with 10 μM forskolin and 50μ genestein.\nCell culture: NIH/3T3-CFTR, NIH/3T3-ΔF508, and NIH/3T3 mock cells (generous gifts from Dr. Richard Mulligan of Children's Hospital and Medical Center, Harvard Medical School) were grown as described [Bradbury et al., 1992] at 37° C. and 5% CO2 in Dulbecco's modified Eagle's medium-H21 supplemented with 10% new-born calf serum, 4 mM glutamine, 25 mM glucose, 100 μg/ml penicillin, 100 μg/ml streptomycin, and 50 μg/ml gentamicin. Cells were maintained in T75 flasks, passaged at 90-95% confluency, and split one to four. For measurements of I^- efflux and in vivo phosphorylation, cells were seeded onto 35-mm dishes at […]. For patch-clamp experiments, cells were grown on coverglass chips in 35-mm culture dishes. Media were replaced 24 hours after plating and thereafter every 48 hours. In all cases, media were changed on the day before I^- efflux studies, NIH/3T3-ΔF508 cells were transferred to 27° C. three days before use, and 1 day prior to study, media were supplemented with 5 mM butyrate. For patch-clamp studies, where a constant level of functional ΔF508-CFTR was not essential, NIH/3T3-ΔF508 cells were cultured at 27° C. for 2-6 days before use. Calu-3 cells were grown and maintained as described by Hunter [1995].\nElectrophysiology: CFTR channel currents were recorded at room temperature (~22° C.) with a patch-clamp amplifier (EPC-9, Heka Electronic), filtered at 100 Hz with a built-in three-pole Bessel filter, and stored on videotapes. Data were subsequently refiltered at 25 Hz with an eight-pole Bessel filter (Frequency Device, Havervill, Mass.) and captured onto a hard disk at a sampling rate of 50 Hz. […] Patch-clamp electrodes were made from Corning 7052 glass capillaries (Warner Instrument, Hammed, Conn.). The pipette resistance was usually 3-5 M.OMEGA., and the seal resistance was >20 G.OMEGA.. The pipette solution contained (in mM) 140 N-methyl-D-glucamine chloride (NMDG-C1), 2 MgCl2, 5Ca Cl2, and 10 HEPES (pH 7.4 with NMDG). The superfusion solution contained (in mM) 150 […], 2 MgCl2, 1 EGTA, 5 glucose, and 5 HEPES (pH 7.4 with NaOH). […]\nStatistics: Mean currents and variance were estimated with Igor (Wavemetrics, Lake Oswego, Oreg.). […] Po was calculated from patches containing a single channel by dividing the open channel current amplitude with the mean-current amplitude. […] Calculated values are presented as means±SE. […]", "values": [
      {"smiles": "Nc1ncnc2c1nc(Sc1ccc(Cl)cc1)n2[C@@H]1O[C@@H]2COP(=O)(O)O[C@H]2[C@H]1O", "note": "[CPT-cAMP, 8-(4-chlorophenylthio)-cAMP, reference compound]", "effect on mean-current amplitude of forskolin-stimulated cells": "failed to increase the mean-current amplitude"}
    ]},
    {"test_system": "CFTR", "experiment": "Other protein tyrosine kinase inhibitors, enhancement of CFTR activity", "type": "cell-based", "details": "methodology of Example 1", "experimental": "Based on the results of Example 1 other protein tyrosine kinase inhibitors were tested using the methodology of Example 1.", "values": [
      {"smiles": "O=c1c(O)c(-c2ccc(O)c(O)c2)oc2cc(O)cc(O)c12", "note": "[quercetin]", "enhancement of CFTR activity": "failed to enhance CFTR activity"}
    ]},
    {"target": "T1, ΔF508-CFTR", "experiment": "CFTR gating in excised inside-out patches, NIH/3T3-ΔF508 cells", "details": "ATP without genistein; stated for both wt- and ΔF508-CFTR", "experimental": "(§1) FIGS. 9A and B are recordings of the effects of genistein on CFTR gating in excised inside-out patches from NIH/3T3-CFTR or NIH/3T3-ΔF508 cells. CFTR channels were activated by 10 μM forskolin +20 nM calyculin A before excision into an inside-out configuration. Presence of calyculin A helps to slow channel dephosphorylation. (A): continuous 14.5 minute recording of a patch containing wt-CFTR. Expanded traces are 22 seconds in length. ATP (500 μM) with or without 20 μM genistein was present as indicated. (B): 2 traces of 44 seconds in length of an excised inside-out patch with CFTR-ΔF508.\n(§2) Electrophysiology: CFTR channel currents were recorded at room temperature (~22° C.) with a patch-clamp amplifier (EPC-9, Heka Electronic), filtered at 100 Hz with a built-in three-pole Bessel filter, and stored on videotapes. Data were subsequently refiltered at 25 Hz with an eight-pole Bessel filter (Frequency Device, Havervill, Mass.) and captured onto a hard disk at a sampling rate of 50 Hz. […] Patch-clamp electrodes were made from Corning 7052 glass capillaries (Warner Instrument, Hammed, Conn.). The pipette resistance was usually 3-5 M.OMEGA., and the seal resistance was >20 G.OMEGA.. The pipette solution contained (in mM) 140 N-methyl-D-glucamine chloride (NMDG-C1), 2 MgCl2, 5Ca Cl2, and 10 HEPES (pH 7.4 with NMDG). The superfusion solution contained (in mM) 150 […], 2 MgCl2, 1 EGTA, 5 glucose, and 5 HEPES (pH 7.4 with NaOH). In excised inside-out patch experiments, the bath solution contained (in mM) 130 MNDG-Cl, 10 EGTA, 10 HEPES, 20 tetraethylammonium chloride, 8 Tris, and 2 MgCl2 (pH 7.4 with NMDG). Pipette potential was held at 50 mV relative to the bath. Downward deflections represent channel opening.\n(§3) Channels were first activated in cell-attached patches with forskolin plus calyculin A, a membrane-permeant phosphatase inhibitor [Suganuma et al., 1991]. Patches were then excised into an inside-out configuration.", "units": {"channel open time": "milliseconds"}, "values": [
      {"smiles": "Nc1ncnc2c1ncn2[C@@H]1O[C@H](COP(=O)(O)OP(=O)(O)OP(=O)(O)O)[C@@H](O)[C@H]1O", "note": "[ATP, reference compound]", "channel open time": "302±2"}
    ]},
    {"target": "wt-CFTR (Homo sapiens, UniProt P13569)", "sequence (P13569 whole entry)": "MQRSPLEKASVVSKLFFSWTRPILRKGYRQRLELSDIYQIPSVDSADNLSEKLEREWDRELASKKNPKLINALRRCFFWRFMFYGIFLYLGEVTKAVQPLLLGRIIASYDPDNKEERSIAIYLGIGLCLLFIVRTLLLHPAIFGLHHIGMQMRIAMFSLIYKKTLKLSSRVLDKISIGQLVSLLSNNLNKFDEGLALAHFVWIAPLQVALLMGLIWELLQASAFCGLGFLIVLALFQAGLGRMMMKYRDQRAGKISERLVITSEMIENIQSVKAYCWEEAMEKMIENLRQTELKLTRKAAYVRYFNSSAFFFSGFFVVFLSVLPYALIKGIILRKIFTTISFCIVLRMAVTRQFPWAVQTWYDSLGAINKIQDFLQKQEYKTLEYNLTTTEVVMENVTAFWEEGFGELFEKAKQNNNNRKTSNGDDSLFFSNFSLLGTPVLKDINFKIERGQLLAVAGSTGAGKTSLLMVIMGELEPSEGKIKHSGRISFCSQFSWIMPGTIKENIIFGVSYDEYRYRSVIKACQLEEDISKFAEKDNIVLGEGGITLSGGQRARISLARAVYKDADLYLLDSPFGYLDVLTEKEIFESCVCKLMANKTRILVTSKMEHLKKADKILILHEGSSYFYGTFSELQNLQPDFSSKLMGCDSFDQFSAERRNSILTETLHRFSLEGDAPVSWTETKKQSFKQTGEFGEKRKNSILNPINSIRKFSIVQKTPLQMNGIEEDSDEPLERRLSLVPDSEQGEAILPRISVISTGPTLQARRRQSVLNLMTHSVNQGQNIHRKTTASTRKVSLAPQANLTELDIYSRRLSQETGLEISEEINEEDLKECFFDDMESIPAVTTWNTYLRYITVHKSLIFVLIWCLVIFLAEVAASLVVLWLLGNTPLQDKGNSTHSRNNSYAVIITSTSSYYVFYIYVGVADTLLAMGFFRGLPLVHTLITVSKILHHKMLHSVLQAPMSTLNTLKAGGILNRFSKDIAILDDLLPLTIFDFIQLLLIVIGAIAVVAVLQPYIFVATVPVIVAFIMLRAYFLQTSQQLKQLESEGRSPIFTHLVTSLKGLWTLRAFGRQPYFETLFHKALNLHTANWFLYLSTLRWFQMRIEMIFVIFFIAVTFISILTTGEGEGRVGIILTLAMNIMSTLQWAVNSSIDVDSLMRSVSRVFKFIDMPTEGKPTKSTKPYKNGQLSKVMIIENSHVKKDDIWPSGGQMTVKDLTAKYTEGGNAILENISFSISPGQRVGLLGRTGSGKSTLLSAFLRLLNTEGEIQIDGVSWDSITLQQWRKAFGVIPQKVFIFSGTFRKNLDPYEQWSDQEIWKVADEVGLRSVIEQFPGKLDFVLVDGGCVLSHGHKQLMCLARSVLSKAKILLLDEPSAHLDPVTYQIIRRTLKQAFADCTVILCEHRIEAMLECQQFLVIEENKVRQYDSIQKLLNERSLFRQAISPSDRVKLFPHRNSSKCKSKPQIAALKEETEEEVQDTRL", "experiment": "not given", "details": "ATP without genistein; stated for both wt- and ΔF508-CFTR", "experimental": "as §1, §2, §3", "units": {"channel open time": "milliseconds"}, "values": [
      {"smiles": "Nc1ncnc2c1ncn2[C@@H]1O[C@H](COP(=O)(O)OP(=O)(O)OP(=O)(O)O)[C@@H](O)[C@H]1O", "note": "[ATP, reference compound]", "channel open time": "302±2"}
    ]},
    {"target": "T1, ΔF508-CFTR", "experiment": "Other protein tyrosine kinase inhibitors, activation of ΔF508-CFTR", "type": "cell-based", "set-up": "expressed in transfected cells; host or cells: NIH/3T3 cells, stably transfected (NIH/3T3-ΔF508, gift of Dr. Richard Mulligan)", "details": "not given", "values": [
      {"smiles": "Nc1ccc(-c2cc(=O)c3cc(O)ccc3o2)cc1", "note": "[aminogenistein, 4'-amino-6-hydroxyflavone]", "ΔF508-CFTR stimulation activity among protein tyrosine kinase inhibitors": "is the only protein tyrosine kinase inhibitor that has such an effect"}
    ]},
    {"target": "T1, ΔF508-CFTR", "experiment": "Other protein tyrosine kinase inhibitors, activation of ΔF508-CFTR", "type": "cell-based", "set-up": "expressed in transfected cells; host or cells: NIH/3T3 cells, stably transfected (NIH/3T3-ΔF508, gift of Dr. Richard Mulligan)", "details": "methodology of Example 1", "values": [
      {"smiles": "CC(=O)OCOC(c1ccc2ccccc2c1)P(=O)(OCOC(C)=O)OCOC(C)=O", "note": "(stereo not drawn) [HNMP-A (AM)^3]", "activation of ΔF508-CFTR": "failed to activate ΔF508-CFTR"},
      {"smiles": "Cc1ccc(-c2nn(C(C)(C)C)c3ncnc(N)c23)cc1", "note": "[PP1]", "activation of ΔF508-CFTR": "failed to activate ΔF508-CFTR"},
      {"smiles": "CCOc1cc(C=C(C#N)C(N)=O)cc(CSc2ccccc2)c1O", "note": "[ST638]", "activation of ΔF508-CFTR": "failed to activate ΔF508-CFTR"},
      {"smiles": "O=c1c(-c2ccc(O)cc2)coc2cc(O)ccc12", "note": "[daidzein]", "activation of ΔF508-CFTR": "failed to activate ΔF508-CFTR"},
      {"smiles": "COc1c(C=O)c(O)cc2c1C(=O)c1ccccc1C2=O", "note": "[damnacanthal]", "activation of ΔF508-CFTR": "failed to activate ΔF508-CFTR"},
      {"smiles": "Cc1cc(O)c2c(c1)C(=O)c1cc(O)cc(O)c1C2=O", "note": "[emodin]", "activation of ΔF508-CFTR": "failed to activate ΔF508-CFTR"},
      {"smiles": "COC(=O)/C=C/c1cc(O)ccc1O", "note": "[erbstatin analogue]", "activation of ΔF508-CFTR": "failed to activate ΔF508-CFTR"},
      {"smiles": "COC1=C2C[C@@H](C)C[C@H](OC)[C@H](O)[C@@H](C)/C=C(\\C)[C@H](OC(N)=O)[C@@H](OC)/C=C\\C=C(/C)C(=O)NC(=CC1=O)C2=O", "note": "[geldanamycin]", "activation of ΔF508-CFTR": "failed to activate ΔF508-CFTR"},
      {"smiles": "COC1C=CC=C(C)C(=O)NC2=CC(=O)C=C(C2=O)C(OC)C(C)CC(OC)C(OC)C(C)C=C(C)C1OC(N)=O", "note": "(stereo not drawn) [herbimycin A]", "activation of ΔF508-CFTR": "failed to activate ΔF508-CFTR"},
      {"smiles": "O=C(O)c1cc(N(Cc2ccccc2O)Cc2cc(O)ccc2O)ccc1O", "note": "[lavendustin A]", "activation of ΔF508-CFTR": "failed to activate ΔF508-CFTR"},
      {"smiles": "O=C(O)c1cc(N(Cc2ccccc2O)Cc2ccccc2O)ccc1O", "note": "[lavendustin B]", "activation of ΔF508-CFTR": "failed to activate ΔF508-CFTR"},
      {"smiles": "COC(=O)c1cc(NCc2cc(O)ccc2O)ccc1O", "note": "[lavendustin C methyl ester]", "activation of ΔF508-CFTR": "failed to activate ΔF508-CFTR"},
      {"smiles": "Oc1cc(O)cc(/C=C/c2ccc(O)c(O)c2)c1", "note": "[piceatannol]", "activation of ΔF508-CFTR": "failed to activate ΔF508-CFTR"}
    ]}
  ]
}
